{
  "source": "patent US20250073184A1",
  "about": "“CANNABIGEROQUINONE COMPOUNDS, COMPOSITIONS INCLUDING SUCH COMPOUNDS, AND USES OF SUCH COMPOUNDS AND COMPOSITIONS” (Juva Life, Inc., priority 2021, published 2025)",
  "key": {"Human COX2": {"biological_target": "T1, Human COX2 (Homo sapiens, UniProt P35354)", "T1 construct": "1-604 (end); purchased BPS Biosciences 71111; host or cells: baculovirus infected Sf9 cells", "T1 sequence (P35354 18-604)": "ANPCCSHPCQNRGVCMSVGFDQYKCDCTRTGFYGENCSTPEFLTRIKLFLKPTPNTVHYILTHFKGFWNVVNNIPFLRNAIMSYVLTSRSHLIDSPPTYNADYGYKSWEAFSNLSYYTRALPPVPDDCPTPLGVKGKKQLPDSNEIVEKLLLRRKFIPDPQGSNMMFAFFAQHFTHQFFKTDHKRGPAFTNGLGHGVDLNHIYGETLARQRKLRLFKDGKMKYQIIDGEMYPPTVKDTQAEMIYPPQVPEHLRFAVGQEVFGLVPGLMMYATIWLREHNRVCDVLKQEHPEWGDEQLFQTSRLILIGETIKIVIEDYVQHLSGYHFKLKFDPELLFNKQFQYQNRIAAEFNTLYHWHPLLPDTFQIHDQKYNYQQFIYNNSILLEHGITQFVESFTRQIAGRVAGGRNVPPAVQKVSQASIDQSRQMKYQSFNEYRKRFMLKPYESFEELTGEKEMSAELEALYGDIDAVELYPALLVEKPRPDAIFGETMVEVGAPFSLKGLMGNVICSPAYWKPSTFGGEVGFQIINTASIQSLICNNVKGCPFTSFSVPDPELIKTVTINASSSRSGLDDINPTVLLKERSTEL", "experiment": "Biochemical COX-2 assay", "conditions": "recombinant enzyme; read-out: Inhibitory Activity EC50, Cox2", "excerpt": "• Human COX2, GenBank Accession No. NM_000963, a.a. 1-604 (end), with C-terminal FLAG-His-tag, MW=71 kDa, expressed in a baculovirus infected Sf9 cell expression system was obtained from BPS Biosciences (Catalog #71111) • Cyclooxygenase (COX) Activity Assay Kit (Fluorometric) was obtained from Abcam (Catalog #ab204699) • Other reagents: black 384 well assay plates were obtained from Corning (Cat #3820). • Equipment: Synergy Neo2 Multi-mode plate reader (Biotek), Labcyte 550 acoustic dispenser (Labcyte), Biomek FX robotic dispenser (Beckman Coulter), Sorvall Legend RT centrifuge (Kendro).\nSerially diluted compounds were prepared in DMSO in Echo qualified 384 well plates. An assay buffer was then prepared, and supplemented with Cox cofactor and fluorogenic probe as described in the Cox activity kit manual. […]\nSerially diluted compounds were added to the assay plate by acoustic dispensing (Labcyte 550). […] Afterwards, the plate was read on a Synergy Neo2 in fluorescence mode: excitation 535 nm, emission 590 nm. % inhibition of the compound was calculated using following equation:\nwhere RFU100% is fluorescence in control samples without compound, RFU0% is fluorescence in control samples without COX-2, and RFU compound fluorescence in a sample with compound.\nThe calculated %-Inh values were then plotted against compound concentration. […]"}, "[1]": {"test_system": "SK-MEL-28 melanoma cell line", "experiment": "SK-MEL-28 cell line toxicity (Cell titer Glo viability)", "format": "cell-based", "conditions": "SK-MEL-28, 72 h", "experimental": "Culture medium were purchased from ATCC, USA.\n• General cell culture reagents and plastic. • 384-Well Flat white Poly-styrene TC-Treated Microplates (Corning). • 384 well poly-propylene plates (acoustic grade, Labcyte) for compound dilution. • Cell titer Glo luminescent Cell Viability reagent (Cat #G7571, Promega).\n90 nL DMSO is added to control wells. […] Luminescence was then recorded using Synergy Neo2Multi-mode Reader."}, "[2]": {"test_system": "HL-60 acute promyelocytic leukemia cell line", "experiment": "HL-60 cell line toxicity (Cell titer Glo viability)", "conditions": "HL-60, 72 h", "experimental": "The half maximal inhibition concentration (IC50) for each compound was determined by harvesting cells during the logarithmic growth period and then counting cell number using hemocytometer. […] Then, using a Biomek FX, test articles were serially diluted (10 mM top, 3× dilution intervals) along with a reference inhibitor (1 mM top, 3× dilution intervals) in acoustic grade Labcyte plate. Then, using an acoustic dispenser (Labcyte550), compounds were added as serially diluted to plate with cells: 90 nL of serially diluted compounds per well. 90 nL DMSO is added to control wells. Test plates were incubated for 72 h in the humidified incubator at 37° C. with 5% CO2. 25 μL of reconstituted Cell titer Glo reagent was added to each well. Each test plate was then incubated for 20 min at room temperature. Luminescence was then recorded using Synergy Neo2Multi-mode Reader.\nIn order to calculate intersect IC50, a dose-response curve was fitted using nonlinear regression model with a sigmoidal dose response.\nThe formula for calculating surviving rate is shown below, and the intersect IC50 was calculated according to the dose-response curve generated by the software:\nThe compounds of interest were assessed cell viability in the HL-60 acute promyelocytic leukemia cell line (ATCC® CCL-240). […] Culture medium were purchased from ATCC, USA."}},
  "data": [
    {"substance": "Cannabigerol Quinone [Formula VI]", "values": [
      {"measurement": "EC50", "setting": "Human COX2", "value": 60.6, "unit": "µM"},
      {"measurement": "EC50", "setting": "[1]", "value": "> 30", "unit": "µM"},
      {"measurement": "higher tolerance of SK-MEL-28 cells to the compound than staurosporine", "setting": "[1]", "value": "more than 250 fold"},
      {"measurement": "Cell Viability (%)", "setting": "[1]; 0.00017 uM", "value": 100.0, "unit": "%"},
      {"measurement": "Cell Viability (%)", "setting": "[1]; 0.00051 uM", "value": 97.2, "unit": "%"},
      {"measurement": "Cell Viability (%)", "setting": "[1]; 0.0015 uM", "value": 96.2, "unit": "%"},
      {"measurement": "Cell Viability (%)", "setting": "[1]; 0.0046 uM", "value": 101.0, "unit": "%"},
      {"measurement": "Cell Viability (%)", "setting": "[1]; 0.014 uM", "value": 98.5, "unit": "%"},
      {"measurement": "Cell Viability (%)", "setting": "[1]; 0.041 uM", "value": 99.9, "unit": "%"},
      {"measurement": "Cell Viability (%)", "setting": "[1]; 0.12 uM", "value": 100.0, "unit": "%"},
      {"measurement": "Cell Viability (%)", "setting": "[1]; 0.37 uM", "value": 101.0, "unit": "%"},
      {"measurement": "Cell Viability (%)", "setting": "[1]; 1.1 uM", "value": 99.9, "unit": "%"},
      {"measurement": "Cell Viability (%)", "setting": "[1]; 3.3 uM", "value": 104.0, "unit": "%"},
      {"measurement": "Cell Viability (%)", "setting": "[1]; 10 uM", "value": 99.0, "unit": "%"},
      {"measurement": "Cell Viability (%)", "setting": "[1]; 30 uM", "value": 83.2, "unit": "%"},
      {"measurement": "higher tolerance of HL-60 cells to the compound than staurosporine", "setting": "[2]", "value": "more than 1,500 fold"},
      {"measurement": "Cell Viability (%)", "setting": "[2]; 0.00017 uM", "value": 102.3, "unit": "%"},
      {"measurement": "Cell Viability (%)", "setting": "[2]; 0.00051 uM", "value": 113.4, "unit": "%"},
      {"measurement": "Cell Viability (%)", "setting": "[2]; 0.0015 uM", "value": 91.6, "unit": "%"},
      {"measurement": "Cell Viability (%)", "setting": "[2]; 0.0046 uM", "value": 94.0, "unit": "%"},
      {"measurement": "Cell Viability (%)", "setting": "[2]; 0.014 uM", "value": 94.1, "unit": "%"},
      {"measurement": "Cell Viability (%)", "setting": "[2]; 0.041 uM", "value": 83.6, "unit": "%"},
      {"measurement": "Cell Viability (%)", "setting": "[2]; 0.12 uM", "value": 85.1, "unit": "%"},
      {"measurement": "Cell Viability (%)", "setting": "[2]; 0.37 uM", "value": 91.3, "unit": "%"},
      {"measurement": "Cell Viability (%)", "setting": "[2]; 1.1 uM", "value": 91.3, "unit": "%"},
      {"measurement": "Cell Viability (%)", "setting": "[2]; 3.3 uM", "value": 97.8, "unit": "%"},
      {"measurement": "Cell Viability (%)", "setting": "[2]; 10 uM", "value": 81.9, "unit": "%"},
      {"measurement": "Cell Viability (%)", "setting": "[2]; 30 uM", "value": 61.5, "unit": "%"},
      {"measurement": "EC50", "setting": "[2]; read-out: EC50 (cell viability)", "value": "> 30", "unit": "µM"}
    ]}
  ]
}
